Several values for one entry are separate records, joined by “and”; a condition that tells them apart may be missing. Equal entries are not always repeated. Structures can show the parent of a compound that is named as a salt.
Columns and labels:
[1] = tested on: healthy, nondependent, recreational stimulant users with intranasal insufflation experience; test: Treatment-emergent adverse events, intranasal study (Example 5, Table 54)
Description: The study consisted of a Screening Period, an in-clinic Drug Discrimination Phase, a Treatment Phase, and a Follow-Up Visit.
All subjects were required to fast for at least 8 hours prior to each dose of study drug until approximately 4 hours after each dose. Abuse potential measures and pharmacokinetic samples were collected at different times after the administration of study drug. Subjects who successfully completed the Drug Discrimination Phase and who qualified for the Treatment Phase remained as inpatients to enter the Treatment Phase.

[2] = tested on: healthy, nondependent, recreational stimulant users with intranasal insufflation experience; test: Intranasal abuse potential, VAS pharmacodynamic scores (Example 5); assay type: in vivo, human
Description: Subjects who successfully completed the Screening Period returned to the clinic to complete the Drug Discrimination Phase. The Drug Discrimination Test was performed to ensure that subjects can differentiate between the effects of a single dose of d-methylphenidate hydrochloride and placebo, administered intranasally. Subjects who successfully completed the Drug Discrimination Phase remained as inpatients to enter the Treatment Phase. The Drug Discrimination Phase was a double-blind, intranasal, single-dose, 2-treatment, 2-period, 2-sequence, randomized, crossover design.
The placebo dose consisted of 80 mg of microcrystalline cellulose to create the same volume.
On dosing days in the Treatment Phase, blood samples were collected for the measurement of the plasma concentrations of SDX, d-methylphenidate (d-MPH), l-methylphenidate (l-MPH) and ritalinic acid at predose and at 0.25, 0.5, 0.75, 1, 1.5, 2, 3, 4, 5, 6, 7, 8, 9, 10, 12, 16, 24, 36, and 48 hours±5 minutes after each dose of study drug. […] All VAS pharmacodynamic assessments except Take Drug Again and Overall Drug Liking were performed at 0.25, 0.5, 0.75, 1, 1.5, 2, 3, 4, 5, 6, 7, 8, 10, 12, 24 hours±5 minutes postdose. In addition, predose assessments of Feeling High, and Drowsiness/Alertness were collected. The Take Drug Again and Overall Drug Liking VAS assessments were performed at 12 and 24 hours±5 minutes postdose.

[3] = d-MPH HCl 40 mg (N = 46), SDX Cl 80 mg (N = 46)
[4] = d-MPH HCl 40 mg vs SDX Cl 80 mg
[5] = SDX Cl 80 mg, d-MPH HCl 40 mg, 12 hours, bipolar VAS
[6] = SDX Cl 80 mg, d-MPH HCl 40 mg, 24 hours, bipolar VAS
[7] = SDX Cl 80 mg, d-MPH HCl 40 mg, bipolar VAS
[8] = SDX Cl 80 mg, d-MPH HCl 40 mg, unipolar VAS

## COC(=O)[C@H](c1ccccc1)[C@H]1CCCCN1 [d-methylphenidate hydrochloride, d-threo-methylphenidate hydrochloride]
[1]; [3]
  TEAE: Abdominal distension: 0 n (%) [E]
  TEAE: Agitation: 0 n (%) [E]
  TEAE: Arthralgia: 0 n (%) [E]
  TEAE: Catheter site haematoma: 0 n (%) [E]
  TEAE: Catheter site swelling: 0 n (%) [E]
  TEAE: Chest pain: 0 n (%) [E]
  TEAE: Claustrophobia: 0 n (%) [E]
  TEAE: Cough: 0 n (%) [E]
  TEAE: Dizziness: 0 n (%) [E]
  TEAE: Dysgeusia: 0 n (%) [E]
  TEAE: Dyspepsia: 0 n (%) [E]
  TEAE: Ecchymosis (skin discoloration): 0 n (%) [E]
  TEAE: Epistaxis (nosebleed): 0 n (%) [E]
  TEAE: Eye pain: 0 n (%) [E]
  TEAE: Feeling of relaxation: 0 n (%) [E]
  TEAE: Head discomfort: 0 n (%) [E]
  TEAE: Infections and infestations: 0 n (%) [E]
  TEAE: Irritability: 0 n (%) [E]
  TEAE: Lacrimation increased: 0 n (%) [E]
  TEAE: Nasal dryness: 0 n (%) [E]
  TEAE: Pharyngitis: 0 n (%) [E]
  TEAE: Phlebitis superficial: 0 n (%) [E]
  TEAE: Pyrexia: 0 n (%) [E]
  TEAE: Rhinorrhoea (runny nose): 0 n (%) [E]
  TEAE: Sneezing: 0 n (%) [E]
  TEAE: Upper-airway cough syndrome: 0 n (%) [E]
  TEAE: Vomiting: 0 n (%) [E]
[1]; [4]
  typical stimulant-related adverse events (euphoric mood, hypervigilance, cardiac palpitations, tachycardia), frequency vs intranasal SDX Cl: occurred more often
[2]; SDX Cl 80 mg, d-MPH HCl 40 mg
  Mean difference Any Effect Emax vs placebo: 88.6
  Mean difference Ease of Nasal Insufflation Emax vs placebo: 11.3
  Mean difference Feeling Drowsy/Alert Emax vs placebo: 42.3
  Mean difference Feeling High Emax vs placebo: 85.2
  Mean difference Good Effects Emax vs placebo: 90.0
  Mean difference Overall Drug Liking vs placebo, 24 hours: 26.1
  Mean difference Take Drug Again vs placebo, 12 hours: 29.1
  Mean difference Take Drug Again vs placebo, 24 hours: 28.3
  Mean difference Take Drug Again vs placebo, Emax: 31.1
  Median difference Bad Effects Emax vs placebo: 10.5
[2]; [5]
  Mean Overall Drug Liking: 79.6
  Mean Take Drug Again: 78.2
  Median Overall Drug Liking: 87
  Median Take Drug Again: 91
[2]; [6]
  Mean Overall Drug Liking: 76.3
  Mean Take Drug Again: 77.4
  Median Overall Drug Liking: 82
  Median Take Drug Again: 94
[2]; [7]
  Drug Liking Emax (median): 100
  Feeling Drowsy/Alert Emax (mean): 93.4
  Feeling Drowsy/Alert Emax (median): 100
  Overall Drug Liking Emax (mean): 81.0
  Overall Drug Liking Emax (median): 90
  Take Drug Again Emax (mean): 80.3
  Take Drug Again Emax (median): 95
[2]; SDX Cl 80 mg, d-MPH HCl 40 mg, bipolar VAS, hydrochloride
  Drug Liking Emax (mean): 93 and 93.2
[2]; [8]
  Any Effect Emax (mean): 89.2
  Any Effect Emax (median): 100
  Bad Effects Emax (mean): 18.6
  Bad Effects Emax (median): 2
  Ease of Nasal Insufflation (mean): 18.1
  Ease of Nasal Insufflation (median): 7
  Feeling High Emax (mean): 88.0
  Feeling High Emax (median): 97
  Good Effects Emax (mean): 90.6
  Good Effects Emax (median): 97
[2]; d-MPH HCl 40 mg
  Median difference Drug Liking Emax vs placebo: 45
  Median difference Overall Drug Liking vs placebo, 12 hours: 33.5
  Median difference Overall Drug Liking vs placebo, Emax: 35
[2]; [4]
  Mean difference Any Effect Emax: 39.8
  Mean difference Drug Liking Emax: 22.3
  Mean difference Ease of Nasal Insufflation Emax: -47.7
  Mean difference Feeling Drowsy/Alert Emax: 22.2
  Mean difference Feeling High Emax: 44.5
  Mean difference Good Effects Emax: 45.7
  Mean difference Overall Drug Liking, 12 hours: 19.2
  Mean difference Overall Drug Liking, 24 hours: 17.3
  Mean difference Overall Drug Liking, Emax: 19.3
  Mean difference Take Drug Again, 12 hours: 21.5
  Mean difference Take Drug Again, 24 hours: 21.5
  Mean difference Take Drug Again, Emax: 20.3
  Median difference Bad Effects Emax: 0

From patent US20190381017A1, “Compositions Comprising Serdexmethylphenidate Conjugates And Methods Of Use Thereof” (KemPharm, Inc., priority 2018, published 2019)
